From patent publication US10280188B2, “Fluorine-containing bisphosphonic acid derivative and use thereof” (NAGASAKI UNIVERSITY, priority 2015, dated 2019)
Read-outs that look alike come from different tables or passages of the source.

Key:
[1] = system: human histiocytic tumor cell line U937; assay: Specific cytotoxicity of Vδ2 positive γδ T cells on compound-treated U937 (time-resolved fluorescence)
Method: A dilution series of 0 μM, 100 μM, 300 μM, 1000 μM was prepared for ZOLF.
A dilution series of 0 μM, 300 μM, 1000 μM, 3000 μM was prepared for ALEF.
A dilution series of 0 μM, 300 μM, 1000 μM, 3000 μM was prepared for PAMF.
A dilution series of 0 μM, 300 μM, 1000 μM, 3000 μM was prepared for IBAF.

[2] = system: human histiocytic tumor cell line U937; assay: CD107a expression of Vδ2 positive γδ T cells on compound-treated U937 cells (flow cytometry); format: cell-based; conditions: U937 treated 2 hr; Vδ2 positive γδ T cells from normal adult (1)
Method: Furthermore, PE-labeled anti-human CD107a monoclonal antibody (5 μL) was added, and the mixture was incubated at 37° C. for 2 hr. Thereto was added FITC-labeled anti-human Vδ2 monoclonal antibody (2 μL), and the mixture was incubated on ice for 20 min. This was washed 3 times with 2% FCS-added PBS, and suspended in 200 μL of 2% FCS-added PBS.

[3] = system: adult T cell leukemia cell line HCT-4; assay: Specific cytotoxicity of Vδ2 positive γδ T cells on compound-treated HCT-4 (time-resolved fluorescence); conditions: γδ T cells from adult T cell leukemia patients (4), E/T 1.25:1-80:1, 1 and 10 μM tested
Method: Adult T cell leukemia cell line HCT-4 cells were suspended in RPMI1640 medium at a cell concentration of 1×10^6/mL, and dispensed by 1 mL to a 15 mL conical tube. This was centrifuged at 600×g for 5 min, and the supernatant was removed. […] Thereto was added 10 mM lanthanoid metal chelating agent by 2.5 μL, and the mixture was further incubated for 15 min. These conical tubes were centrifuged at 600×g for 5 min, and the cell pellets were washed 3 times with RPMI1640 medium. Then, the cell pellets were suspended in 5 mL of RPMI1640 medium, 2 mL therefrom was placed in a different conical tube, and 6 mL of RPMI1640 medium was further added. The cell suspension was seeded by 100 μL in a 96 well round bottom plate. […] The plate was centrifuged at 600×g for 2 min, 25 μL of culture supernatant was taken, and diluted with 200 μL of europium-added acetate buffer. The mixture was taken by 200 μL, and time-resolved fluorescence was measured.

[4] = system: human bladder cancer cell line EJ-1; assay: Specific cytotoxicity of Vδ2 positive γδ T cells on compound-treated EJ-1 (time-resolved fluorescence); conditions: γδ T cells from normal adult (1), E/T 0:1-40:1
Method: Human bladder cancer cell line EJ-1 cells were suspended in RPMI1640 medium at a cell concentration of 1×10^6/mL, and dispensed by 1 mL to a 15 mL conical tube. This was centrifuged at 600×g for 5 min, and the supernatant was removed. […] The compound solutions of the dilution series were added by 1 mL to the cell pellets after removal of the supernatant and incubated at 37° C. for 1 hr 45 min. Thereto was added 10 mM lanthanoid metal chelating agent by 2.5 μL, and the mixture was further incubated for 15 min. These conical tubes were centrifuged at 600×g for 5 min, and the cell pellets were washed 3 times with RPMI1640 medium. Then, the cell pellets were suspended in 5 mL of RPMI1640 medium, 2 mL therefrom was placed in a different conical tube, and 6 mL of RPMI1640 medium was further added. The cell suspension was seeded by 100 μL in a 96 well round bottom plate. Vδ2 positive γδ T cells derived from normal adult (1) were reacted at an effector cell/target cell ratio of 0:1, 5:1, 10:1, 20:1, 40:1, and incubated for 40 min at 37° C. The plate was centrifuged at 600×g for 2 min, 25 μL of culture supernatant was taken, and diluted with 200 μL of europium-added acetate buffer. The mixture was taken by 200 μL, and time-resolved fluorescence was measured.

[5] = system: Vδ2 positive γδ T cells in peripheral blood mononuclear cells of adult T cell leukemia patients; assay: Induction of Vδ2 positive γδ T cell proliferation from peripheral blood mononuclear cells of adult T cell leukemia patients (FACS); format: cell-based, human; conditions: ZOLF-POM 1 μM, cultured 11 days with IL-2
Method: (§1) Heparin blood samples (peripheral blood 10 mL) were collected from adult T cell leukemia patients (1), and diluted with 10 mL of PBS. This was overlaid on 20 mL of Ficoll-Paque and subjected to density gradient centrifugation at 600×g for 30 min at room temperature. The layer directly above Ficoll-Paque was recovered, and washed 3 times with PBS to give peripheral blood mononuclear cells. The cells were suspended in 7 mL of Yssel medium, 1 mL therefrom was stained with PE-labeled anti-human CD3 monoclonal antibody and FITC-labeled anti-human Vδ2 monoclonal antibody, and analyzed by flow cytometer. As a result, as shown in the panel on the left side in FIG. 2, Vδ2 positive γδ T cells accounted for 0.75% of lymphocyte gate. […] As a result, as shown in the panel on the right side in FIG. 2, Vδ2 positive γδ T cells accounted for 91.48% of lymphocyte gate.
as §1, with “(2),” for “(1),”, “3,” for “2,”, “1.58%” for “0.75%”, “96.83%” for “91.48%”
(§2) Heparin blood samples (peripheral blood 10 mL) were collected from adult T cell leukemia patients (3), and diluted with 10 mL of PBS. […] The cells were suspended in 7 mL of Yssel medium, 1 mL therefrom was stained with PE-labeled anti-human CD3 monoclonal antibody and FITC-labeled anti-human Vδ2 monoclonal antibody, and analyzed by flow cytometer. […]

[6] = system: Vδ2 positive γδ T cells in peripheral blood mononuclear cells of lung cancer patients; assay: Induction of Vδ2 positive γδ T cell proliferation from peripheral blood mononuclear cells of lung cancer patients (FACS); format: cell-based, human; conditions: ZOLF-POM 1 μM, cultured 11 days with IL-2
Method: as §1, with “collected from lung cancer patients (1),” for “collected from adult T cell leukemia patients (1),”, “with 10 ml of PBS.” for “with 10 mL of PBS.”, “in FIG. 5, Vδ2 positive” for “in FIG. 2, Vδ2 positive”, “accounted for 4.14% of lymphocyte” for “accounted for 0.75% of lymphocyte”, “accounted for 98.59% of lymphocyte” for “accounted for 91.48% of lymphocyte”
as §2, with “lung cancer” for “adult T cell leukemia”, “(2),” for “(3),”, “PBS. This was overlaid on 20 mL of Ficoll-Paque and subjected to density gradient centrifugation at 600×g for 30 min at room temperature.” for “PBS.”

[7] = U937, γδ T cells from normal adult (1), E/T 0:1-40:1

## NCCC(F)(P(=O)(O)O)P(=O)(O)O [PAMF, 3-amino-1-fluoro-propylidene-1,1-bisphosphonic acid]
[1]; [7]
  concentration at which sensitivity to cytotoxicity activity of Vδ2 positive γδ T cells is promoted: at least 300 μM
[2]
  compound concentration that induces maximum CD107a expression: several hundred

## O=P(O)(O)C(F)(Cn1ccnc1)P(=O)(O)O [ZOLF, 1-fluoro-(2-imidazoyl-1-ethylidene)-1,1-bisphosphonic acid]
[2]
  compound concentration that induces maximum CD107a expression: several hundred

## CCCCCN(C)CCC(F)(P(=O)(O)O)P(=O)(O)O [IBAF, 1-fluoro-3-(methyl(pentyl)amino)propylidene-1,1-bisphosphonic acid]
[1]
  concentration at which sensitivity to cytotoxicity activity of Vδ2 positive γδ T cells is promoted: at least 300 μM

## NCCCC(F)(P(=O)(O)O)P(=O)(O)O [ALEF, 4-amino-1-fluoro-butylidene-1,1-bisphosphonic acid]
[1]; [7]
  concentration at which sensitivity to cytotoxicity activity of Vδ2 positive γδ T cells is promoted: at least 300 μM
[2]
  compound concentration that induces maximum CD107a expression: several hundred

## CC(C)(C)C(=O)OCOP(=O)(OCOC(=O)C(C)(C)C)C(F)(Cn1ccnc1)P(=O)(OCOC(=O)C(C)(C)C)OCOC(=O)C(C)(C)C [ZOLF-POM, tetrakispivaloyloxymethyl-1-fluoro-2-(1H-imidazoyl-1-ethylidene)-1,1-bisphosphonate]
[3]
  concentration at which sensitivity to cytotoxicity activity of Vδ2 positive γδ T cells is promoted: at least 1 μM
[4]
  concentration at which sensitivity to cytotoxicity activity of Vδ2 positive γδ T cells is promoted: at least 1.25 μM
[5]; adult T cell leukemia patient (1), 0.75% before culture
  Vδ2 positive γδ T cells, proportion of lymphocyte gate: 91.48%
[5]; adult T cell leukemia patient (2), 1.58% before culture
  Vδ2 positive γδ T cells, proportion of lymphocyte gate: 96.83%
[5]; adult T cell leukemia patient (3), 0.49% before culture
  Vδ2 positive γδ T cells, proportion of lymphocyte gate: 98.29%
[6]; lung cancer patient (1), 4.14% before culture
  Vδ2 positive γδ T cells, proportion of lymphocyte gate: 98.59%
[6]; lung cancer patient (2), 1.95% before culture
  Vδ2 positive γδ T cells, proportion of lymphocyte gate: 95.72%
[2]
  compound concentration that induces maximum CD107a expression: about 100 nM
